Source: article PMC9296036, “A peptide interfering with the dimerization of oncogenic KITENIN protein and its stability suppresses colorectal tumour progression” (Clinical and Translational Medicine, 2022)
Ends that are not written are not given here.

Tests used:
[1] = target: T1, KITENIN (Homo sapiens, UniProt Q8TAA9); assay: Endogenous KITENIN protein level in HCT116 cells (immunoblot); format: cell-based; conditions: non-transfected HCT116 cells, KDIP 1 μM, 12 h
T1 construct: decreased endogenous KITENIN protein levels in non‐transfected HCT116 and CT‐26 cells; endogenous in cells; host or cells: HCT116
T1 sequence (Q8TAA9 1-524): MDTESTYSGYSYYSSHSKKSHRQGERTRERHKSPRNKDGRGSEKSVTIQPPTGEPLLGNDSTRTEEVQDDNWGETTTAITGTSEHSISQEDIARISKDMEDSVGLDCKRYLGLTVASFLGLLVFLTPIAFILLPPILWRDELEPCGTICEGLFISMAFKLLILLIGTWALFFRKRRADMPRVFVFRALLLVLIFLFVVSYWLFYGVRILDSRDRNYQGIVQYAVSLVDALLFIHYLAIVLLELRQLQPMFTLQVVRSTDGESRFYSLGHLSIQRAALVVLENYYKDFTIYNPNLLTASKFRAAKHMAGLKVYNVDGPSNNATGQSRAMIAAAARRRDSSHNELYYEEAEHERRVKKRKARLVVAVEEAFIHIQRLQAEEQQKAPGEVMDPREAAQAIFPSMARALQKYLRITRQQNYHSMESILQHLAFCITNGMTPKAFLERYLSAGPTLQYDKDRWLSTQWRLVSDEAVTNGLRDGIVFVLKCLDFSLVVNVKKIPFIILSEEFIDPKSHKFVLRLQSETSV
Source text: Antibodies against the following proteins were obtained from the indicated suppliers: Na^+/K^+ ATPase, GFP and tubulin (Santa Cruz Biotechnology); c‐Jun, p‐c‐Jun, ERK, p‐ERK, c‐MET, p‐c‐MET and GST (Cell Signaling Technology); V5, Myc (MBL); HA and β‐actin (Sigma); KITENIN (Atlas); His and RACK1, LC3, p62, Myo10, and eukaryotic elongation factor 2 (eEF2) (Abcam). They were used with appropriate secondary antibodies (Thermo). For transient transfection analyses, Caco2, HCT116 and 293T cells were transfected with various plasmids and harvested for immunoblot analysis 48 h after transfection. For most assays using stable cell lines, mixed polyclonal cells were used to exclude clonal variation. […]
FIGURE 2 KAI1 C‐terminal interacting tetraspanin (KITENIN) dimerization‐interfering peptide (KDIP) suppresses KITENIN‐induced enhanced cell invasion through the inhibition of the homodimerization of KITENIN. […] After 48 h of treatment, KITENIN transcripts in cells were analysed by the 2^−ΔΔ ^CT method using Q‐PCR. […] Caco2 cells were co‐transfected with KITENIN‐V5/Myc and treated with or without KDIP or scrambled peptide (scr) and were immunoprecipitated with anti‐V5 antibody and detected by indicated antibodies. Numerals indicated a quantification of the MYC bands normalized to the corresponding V5 bands (left panel). […] Numerals indicated a quantification of the bands observed (left panel). […]

[2] = system: CT-26/iRFP/KITENIN cells; assay: Transwell cell invasion assay, CT-26/iRFP/KITENIN or CT-26/KITENIN-V5 cells; format: cell-based, mouse; conditions: increasing doses of KDIP, compared with scramble peptide

endogenous KITENIN protein level (in words) [1]: decreased
Sequence: YARVRRRGPRRWRLVSDEAV [KDIP]
cell invasion of CT-26/KITENIN-V5 cells (in words) [2]: significantly reduced
